In patent US20260306640A1, “TECHNOLOGIES TARGETING CELL STATES” (Auron Therapeutics, Inc., priority 2023, published 2026):

molecular target: KAT2A (Homo sapiens, UniProt Q92830); assay: KAT2A degradation, Western Blot (Jess), MOLM-13 cells; assay type: cell-based; design: degrader, Western blot; conditions: MOLM-13 cells, KAT2A, 24 h, Western Blot, vs DMSO; read-out: KAT2A MOLM-13 DC50
Outline: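 MOLM-13 cells in RPMI 1640/20% FBS were treated with compound for 24 h at 37 °C. RIPA lysates (4 μg) were run on a capillary Western (Jess) with anti-KAT2A antibody and chemiluminescent detection. DC50 comes from percent protein reduction versus DMSO control.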

Chain of KAT2A (Q92830 whole entry): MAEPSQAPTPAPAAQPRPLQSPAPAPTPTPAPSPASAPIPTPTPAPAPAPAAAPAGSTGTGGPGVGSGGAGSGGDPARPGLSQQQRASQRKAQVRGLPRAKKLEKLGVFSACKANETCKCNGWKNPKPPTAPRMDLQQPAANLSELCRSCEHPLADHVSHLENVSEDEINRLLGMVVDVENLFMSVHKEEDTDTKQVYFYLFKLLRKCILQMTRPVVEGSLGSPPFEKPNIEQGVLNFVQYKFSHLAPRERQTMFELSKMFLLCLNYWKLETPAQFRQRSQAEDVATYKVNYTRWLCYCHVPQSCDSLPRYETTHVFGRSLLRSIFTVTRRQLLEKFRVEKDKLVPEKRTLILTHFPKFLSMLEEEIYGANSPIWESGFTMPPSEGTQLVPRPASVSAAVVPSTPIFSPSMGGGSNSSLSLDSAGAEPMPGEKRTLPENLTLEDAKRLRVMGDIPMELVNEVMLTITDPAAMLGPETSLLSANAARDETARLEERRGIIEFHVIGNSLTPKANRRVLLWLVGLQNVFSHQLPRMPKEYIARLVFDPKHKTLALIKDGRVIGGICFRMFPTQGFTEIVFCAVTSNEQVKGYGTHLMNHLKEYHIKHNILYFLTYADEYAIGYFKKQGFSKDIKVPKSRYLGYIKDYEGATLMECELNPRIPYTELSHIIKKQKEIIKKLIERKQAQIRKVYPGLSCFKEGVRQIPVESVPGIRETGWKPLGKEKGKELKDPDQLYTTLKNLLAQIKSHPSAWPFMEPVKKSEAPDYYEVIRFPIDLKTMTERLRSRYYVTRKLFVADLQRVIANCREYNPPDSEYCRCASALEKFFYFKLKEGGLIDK

| Compound | DC50 |
| --- | --- |
| CN1C[C@H](Nc2cnn(C)c(=O)c2Br)C[C@H](c2ccc(CN3CCN(Cc4ccc5c(c4)CN(C4CCC(=O)NC4=O)C5=O)CC3)cc2)C1 (stereo partly drawn) [Compound 74] | < 1 nM |
| CN1C[C@H](Nc2cnn(C)c(=O)c2Br)C[C@H](c2ccc(CN3CCN(c4cccc5c4CN(C4CCC(=O)NC4=O)C5=O)CC3)cc2)C1 (stereo partly drawn) [Compound 116] | < 1 nM |
| CN1C[C@H](Nc2cnn(C)c(=O)c2Br)C[C@H](c2ccc(C(=O)N3CCC4(CCN(c5ccc6c(c5)C(=O)N(C5CCC(=O)NC5=O)C6=O)C4)C3)cc2)C1 (stereo partly drawn) [Compound 98] | 1 to 30 nM |
| CN1C[C@H](Nc2cnn(C)c(=O)c2Br)C[C@H](c2ccc(C(=O)N(C)c3cccc(Oc4ccc5c(c4)C(=O)N(C4CCC(=O)NC4=O)C5=O)c3)cc2)C1 (stereo partly drawn) [Compound 34] | 1 to 30 nM |
| CN1C[C@H](Nc2cnn(C)c(=O)c2Br)C[C@H](c2ccc(C(=O)N3CC(Oc4cccc(C5CCC(=O)NC5=O)c4)C3)cc2)C1 (stereo partly drawn) [Compound 185] | < 1 nM |
| CN1C[C@H](Nc2cnn(C)c(=O)c2Br)C[C@H](c2ccc(CN3CC(Oc4ccc(C5CCC(=O)NC5=O)cc4)C3)cc2)C1 (stereo partly drawn) [Compound 182] | < 1 nM |
| CN1C[C@H](Nc2cnn(C)c(=O)c2Br)C[C@H](c2ccc(C(=O)N(C)c3ccc(Oc4cccc5c4C(=O)N(C4CCC(=O)NC4=O)C5=O)cc3)cc2)C1 (stereo partly drawn) [Compound 1] | 1 to 30 nM |
| CN1C[C@H](Nc2cnn(C)c(=O)c2Br)C[C@H](c2ccc(C(=O)N(C)CCCCC#CCCCOc3cccc4c3C(=O)N(C3CCC(=O)NC3=O)C4=O)cc2)C1 (stereo partly drawn) [Compound 8] | 1 to 30 nM |
| CN1C[C@H](Nc2cnn(C)c(=O)c2Br)C[C@H](c2ccc(CNC3CN(c4ccc(C5CCC(=O)NC5=O)cc4)C3)cc2)C1 (stereo partly drawn) [Compound 103] | < 1 nM |
| CN1C[C@H](Nc2cnn(C)c(=O)c2Br)C[C@H](c2ccc(C(=O)N3CCN(c4cccc5c4n(C)c(=O)n5C4CCC(=O)NC4=O)CC3)cc2)C1 (stereo partly drawn) [Compound 142] | 1 to 30 nM |
| CN1C[C@H](Nc2nn(C)c(=O)c3cccnc23)C[C@H](c2ccc(C(=O)N3CCN(Cc4ccc(C(=O)Nc5cccc6c5C(=O)N(C5CCC(=O)NC5=O)C6=O)cc4)CC3)cc2)C1 (stereo partly drawn) [Compound 47] | > 30 nM |
| CN1C[C@H](Nc2cnn(C)c(=O)c2Br)C[C@H](c2ccc(CN3CCC4(CC3)CN(c3ccc(C5CCC(=O)NC5=O)cc3)C4)cc2)C1 (stereo partly drawn) [Compound 133] | 1 to 30 nM |
| CN1C[C@H](Nc2cnn(C)c(=O)c2Br)C[C@H](c2ccc(CN3CCN(Cc4ccc(Oc5cccc6c5C(=O)N(C5CCC(=O)NC5=O)C6=O)cc4)CC3)cc2)C1 (stereo partly drawn) [Compound 50] | < 1 nM |
| CN1C[C@H](Nc2cnn(C)c(=O)c2Br)C[C@H](c2ccc(C(=O)N3CCC(C#CC(=O)Nc4ccc5c(c4)CN(C4CCC(=O)NC4=O)C5=O)CC3)cc2)C1 (stereo partly drawn) [Compound 5] | 1 to 30 nM |
| CN1C[C@H](Nc2cnn(C)c(=O)c2Br)C[C@H](c2ccc(CN3CCN(c4ccc(N5CCC(=O)NC5=O)cc4)CC3)cc2)C1 [Compound 78] | > 30 nM |
| Cc1ccc(N2CCC3(CCN(Cc4ccc([C@H]5C[C@@H](Nc6cnn(C)c(=O)c6Br)CN(C)C5)cc4)CC3)CC2)cc1C1CCC(=O)NC1=O (stereo partly drawn) [Compound 178] | 1 to 30 nM |
| CN1C[C@H](Nc2cnn(C)c(=O)c2Br)C[C@H](c2ccc(C(=O)N3CCN(c4ccc5c(c4)n(C)c(=O)n5C4CCC(=O)NC4=O)CC3)cc2)C1 (stereo partly drawn) [Compound 137] | 1 to 30 nM |
| CN1C[C@H](Nc2cnn(C)c(=O)c2Br)C[C@H](c2ccc(C(=O)N3CC4(C3)CN(c3ccc(C5CCC(=O)NC5=O)cc3)C4)cc2)C1 (stereo partly drawn) [Compound 147] | 1 to 30 nM |
| CN1C[C@H](Nc2cnn(C)c(=O)c2Cl)C[C@H](c2ccc(CN3Cc4cc5c(cc4C3)C(=O)N(C3CCC(=O)NC3=O)C5=O)cc2)C1 (stereo partly drawn) [Compound 164] | 1 to 30 nM |
| CN1C[C@H](Nc2cnn(C)c(=O)c2Br)C[C@H](c2ccc(C(=O)N3CCN(Cc4cccc5c4C(=O)N(C4CCC(=O)NC4=O)C5=O)CC3)cc2)C1 (stereo partly drawn) [Compound 52] | < 1 nM |
| CN1C[C@H](Nc2cnn(C)c(=O)c2Br)C[C@H](c2ccc(C(=O)N3CCC(c4cccc5c4CN(C4CCC(=O)NC4=O)C5=O)CC3)cc2)C1 (stereo partly drawn) [Compound 83] | 1 to 30 nM |
| CN1C[C@H](Nc2cnn(C)c(=O)c2Br)C[C@H](c2ccc(C(=O)N3CCN(Cc4cccc5c4CN(C4CCC(=O)NC4=O)C5=O)CC3)cc2)C1 (stereo partly drawn) [Compound 79] | 1 to 30 nM |
| Cc1ccc(N2CCC3(CCN(C(=O)c4ccc([C@H]5C[C@@H](Nc6cnn(C)c(=O)c6Br)CN(C)C5)cc4)CC3)CC2)cc1C1CCC(=O)NC1=O (stereo partly drawn) [Compound 179] | < 1 nM |
| CN1C[C@H](Nc2cnn(C)c(=O)c2Cl)C[C@H](c2ccc(CN3CCC4(CC3)CCN(c3cccc(C5CCC(=O)NC5=O)c3)CC4)cc2)C1 (stereo partly drawn) [Compound 170] | < 1 nM |
| Cc1cc(N2CCC3(CCN(Cc4ccc([C@H]5C[C@@H](Nc6cnn(C)c(=O)c6Br)CN(C)C5)cc4)CC3)CC2)ccc1C1CCC(=O)NC1=O (stereo partly drawn) [Compound 166] | < 1 nM |
| CN1C[C@H](Nc2cnn(C)c(=O)c2Br)C[C@H](c2ccc(CN3CCC(c4ccc5c(c4)CN(C4CCC(=O)NC4=O)C5=O)C3)cc2)C1 (stereo partly drawn) [Compound 113] | < 1 nM |

| Compound | DC50 |
| --- | --- |
| CN1C[C@H](Nc2cnn(C)c(=O)c2Br)C[C@H](c2ccc(C(=O)N3CC(Oc4ccc5c(c4)C(=O)N(C4CCC(=O)NC4=O)C5=O)C3)cc2)C1 (stereo partly drawn) [Compound 30] | 1 to 30 nM |
| CN1C[C@H](Nc2cnn(C)c(=O)c2Br)C[C@H](c2ccc(C(=O)N3CCC(c4ccc(NC5CCC(=O)NC5=O)cc4)CC3)cc2)C1 (stereo partly drawn) [Compound 115] | < 1 nM |
| CN1C[C@H](Nc2cnn(C)c(=O)c2Br)C[C@H](c2ccc(C(=O)N3CC4(C3)CN(c3cccc5c3C(=O)N(C3CCC(=O)NC3=O)C5=O)C4)cc2)C1 (stereo partly drawn) [Compound 29] | < 1 nM |
| CN1C[C@H](Nc2cnn(C)c(=O)c2Br)C[C@H](c2ccc(C(=O)N3CCC4(CCN(c5ccc(C6CCC(=O)NC6=O)cc5)C4)C3)cc2)C1 (stereo partly drawn) [Compound 82] | < 1 nM |
| CN1C[C@H](Nc2cnn(C)c(=O)c2Br)C[C@H](c2ccc(C(=O)N3CCN(Cc4ccc(C5CCC(=O)NC5=O)cc4)CC3)cc2)C1 (stereo partly drawn) [Compound 80] | < 1 nM |
| Cc1ccc(N2CCN(Cc3ccc([C@H]4C[C@@H](Nc5cnn(C)c(=O)c5Br)CN(C)C4)cc3)CC2)cc1C1CCC(=O)NC1=O (stereo partly drawn) [Compound 165] | < 1 nM |
| CN1C[C@H](Nc2cnn(C)c(=O)c2Br)C[C@H](c2ccc(C(=O)N3CC(Oc4ccc(C5CCC(=O)NC5=O)cc4)C3)cc2)C1 (stereo partly drawn) [Compound 183] | 1 to 30 nM |
| CN1C[C@H](Nc2cnn(C)c(=O)c2Br)C[C@H](c2ccc(C(=O)NCCOCCn3cc(COCCOc4cccc5c4C(=O)N(C4CCC(=O)NC4=O)C5=O)nn3)cc2)C1 (stereo partly drawn) [Compound 43] | > 30 nM |
| CN1C[C@H](Nc2cnn(C)c(=O)c2Br)C[C@H](c2ccc(COC3CN(c4ccc5c(c4)C(=O)N(C4CCC(=O)NC4=O)C5=O)C3)cc2)C1 (stereo partly drawn) [Compound 117] | < 1 nM |
| CN1C[C@H](Nc2cnn(C)c(=O)c2Br)C[C@H](c2ccc(C(=O)NCCCCCCOCCOCC(=O)Nc3cccc4c3C(=O)N(C3CCC(=O)NC3=O)C4=O)cc2)C1 (stereo partly drawn) [Compound 12] | 1 to 30 nM |
| CN1C[C@H](Nc2cnn(C)c(=O)c2Br)C[C@H](c2ccc(C(=O)N3CCC(F)(CN4CCN(c5ccc6c(c5)C(=O)N(C5CCC(=O)NC5=O)C6=O)CC4)CC3)cc2)C1 (stereo partly drawn) [Compound 112] | < 1 nM |
| CN1C[C@H](Nc2cnn(C)c(=O)c2Br)C[C@H](c2ccc(CN(C)c3ccc(Oc4cccc5c4C(=O)N(C4CCC(=O)NC4=O)C5=O)cc3)cc2)C1 (stereo partly drawn) [Compound 53] | 1 to 30 nM |
| CN1C[C@H](Nc2cnn(C)c(=O)c2Br)C[C@H](c2ccc(C(=O)N3CCN(Cc4ccc(N5CCC(=O)NC5=O)cc4)CC3)cc2)C1 [Compound 102] | > 30 nM |
| CN1C[C@H](Nc2cnn(C)c(=O)c2Br)C[C@H](c2ccc(C(=O)N3CC4(CN(Cc5cccc6c5C(=O)N(C5CCC(=O)NC5=O)C6=O)C4)C3)cc2)C1 (stereo partly drawn) [Compound 59] | 1 to 30 nM |
| CN1C[C@H](Nc2cnn(C)c(=O)c2Br)C[C@H](c2ccc(C(=O)N3CCN(c4cccc5c4C(=O)N(C4CCC(=O)NC4=O)C5=O)CC3)cc2)C1 (stereo partly drawn) [Compound 27] | < 1 nM |
| CN1C[C@H](Nc2cnn(C)c(=O)c2Br)C[C@H](c2ccc(C(=O)N(C)Cc3ccc(COc4cccc5c4C(=O)N(C4CCC(=O)NC4=O)C5=O)cc3)cc2)C1 (stereo partly drawn) [Compound 55] | < 1 nM |
| CN1C[C@H](Nc2ccn(C)c(=O)c2Br)C[C@H](c2ccc(CN3CCC(c4ccc5c(c4)CN(C4CCC(=O)NC4=O)C5=O)CC3)cc2)C1 (stereo partly drawn) [Compound 68] | < 1 nM |
| CN1C[C@H](Nc2cnn(C)c(=O)c2Br)C[C@H](c2ccc(CN3CCC(Oc4cccc5c4C(=O)N(C4CCC(=O)NC4=O)C5=O)CC3)cc2)C1 (stereo partly drawn) [Compound 36] | 1 to 30 nM |
| CN1C[C@H](Nc2cnn(C)c(=O)c2C2CC2)C[C@H](c2ccc(CN3CCC(c4ccc5c(c4)CN(C4CCC(=O)NC4=O)C5=O)CC3)cc2)C1 (stereo partly drawn) [Compound 129] | 1 to 30 nM |
| CN1C[C@H](Nc2cnn(C)c(=O)c2Br)C[C@H](c2ccc(CN3CCC(c4ccc(C5CCC(=O)NC5=O)cc4)CC3)cc2)C1 (stereo partly drawn) [Compound 87] | 1 to 30 nM |
| CN1C[C@H](Nc2cnn(C)c(=O)c2Br)C[C@H](c2ccc(C(=O)N3CCC(N4CCN(c5ccc6c(c5)C(=O)N(C5CCC(=O)NC5=O)C6=O)CC4)CC3)cc2)C1 (stereo partly drawn) [Compound 96] | < 1 nM |
| CN1C[C@H](Nc2cnn(C)c(=O)c2Br)C[C@H](c2ccc(C(=O)N3CCC(c4ccc5c(c4)CN(C4CCC(=O)NC4=O)C5=O)CC3)cc2)C1 (stereo partly drawn) [Compound 73] | 1 to 30 nM |
| CN1C[C@H](Nc2cnn(C)c(=O)c2Br)C[C@H](c2ccc(C(=O)N3CCC(c4ccc(CN5CCC(=O)NC5=O)cc4)CC3)cc2)C1 [Compound 136] | > 30 nM |
| CN1C[C@H](Nc2nn(C)c(=O)n(C)c2=O)C[C@H](c2ccc(C(=O)N3CCN(Cc4ccc(C(=O)Nc5cccc6c5C(=O)N(C5CCC(=O)NC5=O)C6=O)cc4)CC3)cc2)C1 (stereo partly drawn) [Compound 56] | > 30 nM |
| CN1C[C@H](Nc2cnn(C)c(=O)c2Br)C[C@H](c2ccc(COc3ccc4c(c3)CN(C3CCC(=O)NC3=O)C4=O)cc2)C1 (stereo partly drawn) [Compound 65] | > 30 nM |
